The text below walks through data of US9394305B2, “Substituted imidazo[1,2-a]pyridine compounds as tropomyosin receptor kinase a (TrkA) inhibitors” (Dr. Reddy's Laboratories Ltd., priority 2014, dated 2016).

T1 sequence (P04629 33-796): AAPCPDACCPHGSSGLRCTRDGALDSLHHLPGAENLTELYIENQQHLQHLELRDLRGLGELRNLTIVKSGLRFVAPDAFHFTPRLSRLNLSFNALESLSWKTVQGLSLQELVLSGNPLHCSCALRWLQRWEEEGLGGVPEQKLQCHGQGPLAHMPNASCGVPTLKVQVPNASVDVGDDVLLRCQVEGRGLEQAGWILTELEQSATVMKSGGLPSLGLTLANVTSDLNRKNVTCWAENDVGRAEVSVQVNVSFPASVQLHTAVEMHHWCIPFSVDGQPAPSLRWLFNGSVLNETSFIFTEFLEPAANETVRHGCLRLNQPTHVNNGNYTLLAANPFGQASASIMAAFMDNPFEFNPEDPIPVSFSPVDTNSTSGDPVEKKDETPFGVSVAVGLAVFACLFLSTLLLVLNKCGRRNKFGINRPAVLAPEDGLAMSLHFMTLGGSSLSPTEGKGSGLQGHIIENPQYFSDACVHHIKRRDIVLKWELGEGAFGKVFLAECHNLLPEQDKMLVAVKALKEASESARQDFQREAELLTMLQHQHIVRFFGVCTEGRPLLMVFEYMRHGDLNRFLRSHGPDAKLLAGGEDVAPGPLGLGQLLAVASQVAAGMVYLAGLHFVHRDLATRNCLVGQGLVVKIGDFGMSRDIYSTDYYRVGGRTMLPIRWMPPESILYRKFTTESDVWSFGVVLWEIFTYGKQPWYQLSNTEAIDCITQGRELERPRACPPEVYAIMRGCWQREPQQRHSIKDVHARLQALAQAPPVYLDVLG

The experiment concerns the target T1, TrkA kinase (Homo sapiens, UniProt P04629).
T1 construct: purchased Upstate, USA
In words: In vitro TrkA inhibitory activity using TR-FRET assay. Particulars: 5 ng TrkA, 500 μM ATP, values given as bins, read-out: TrkA inhibition in-vitro IC50. The class given is biochemical. The procedure, abridged:
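TrkA kinase (5 ng) was preincubated 30 min at 20-35° C. with compound (1% DMSO final), then 40 nM ULight poly GT and 500 μM ATP were added for 30 min before an EDTA stop. Phosphorylation was detected by Eu anti-phosphotyrosine TR-FRET (ex 340, em 615/665 nm), and IC50 came from sigmoidal fits of 1/3 serial dilutions.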
By IC50 is commonly meant the midpoint of a concentration-inhibition curve. As to `CN(c1ccccn1)S(=O)(=O)NC(=O)c1cnc2ccc(N3C[C@@H](F)C[C@@H]3c3cc(F)ccc3OC3CCOCC3)cn12` [Example 104, 6-((2R,4S)-4-fluoro-2-(5-fluoro-2-((tetrahydro-2H-pyran-4-yl)oxy)phenyl)pyrrolidin-1-yl)-N—(N-methyl-N-(pyridin-2-yl)sulfamoyl)imidazo[1,2-a]pyridine-3-carboxamide], the IC50 is at most 50 nM.
The result for `COCCN(C)S(=O)(=O)NC(=O)c1cnc2ccc(N3CCC[C@@H]3c3cc(F)ccc3O[C@@H]3CCOC3)cn12` [Example 105, 6-((R)-2-(5-fluoro-2-(((R)-tetrahydrofuran-3-yl)oxy)phenyl)pyrrolidin-1-yl)-N—(N-(2-methoxyethyl)-N-methylsulfamoyl)imidazo[1,2-a]pyridine-3-carboxamide] reads at most 50 nM; that for `CN(C)S(=O)(=O)NC(=O)c1cnc2ccc(N3CCC[C@@H]3c3cc(F)ccc3O[C@@H]3CCOC3)cn12` [Example 106, N—(N,N-dimethylsulfamoyl)-6-((R)-2-(5-fluoro-2-(((R)-tetrahydrofuran-3-yl)oxy)phenyl)pyrrolidin-1-yl)imidazo[1,2-a]pyridine-3-carboxamide], at most 50 nM.
For the molecule `CCCN(C)S(=O)(=O)NC(=O)c1cnc2ccc(N3CCC[C@@H]3c3cc(F)ccc3O[C@@H]3CCOC3)cn12` [Example 107, 6-((R)-2-(5-fluoro-2-(((R)-tetrahydrofuran-3-yl)oxy)phenyl)pyrrolidin-1-yl)-N—(N-methyl-N-propylsulfamoyl)imidazo[1,2-a]pyridine-3-carboxamide], the IC50 was at most 50 nM.
On to `CN(C1CC1)S(=O)(=O)NC(=O)c1cnc2ccc(N3C[C@@H](F)C[C@@H]3c3cc(F)ccc3OC3CCOCC3)cn12` [Example 108, N—(N-cyclopropyl-N-methylsulfamoyl)-6-((2R,4S)-4-fluoro-2-(5-fluoro-2-((tetrahydro-2H-pyran-4-yl)oxy)phenyl)pyrrolidin-1-yl)imidazo[1,2-a]pyridine-3-carboxamide], for which the concentration for half-maximal inhibition (IC50) is at most 50 nM.
The result for `CN(CC(C)(C)F)S(=O)(=O)NC(=O)c1cnc2ccc(N3C[C@@H](F)C[C@@H]3c3cc(F)ccc3OC3CCOCC3)cn12` [Example 110, 6-((2R,4S)-4-fluoro-2-(5-fluoro-2-((tetrahydro-2H-pyran-4-yl)oxy)phenyl)pyrrolidin-1-yl)-N—(N-(2-fluoro-2-methylpropyl)-N-methylsulfamoyl)imidazo[1,2-a]pyridine-3-carboxamide] reads at most 50 nM.
